Measurements from patent US9802899B2, “Heterocyclic compounds as pesticides” (BAYER CROPSCIENCE AG, priority 2012, dated 2017).

Experiment: Determination of the log P values by HPLC (formic acid method)
Format: physicochemical
Conditions: reversed-phase column (C 18), acidic range (pH 3.4), 55° C.; for chromatographic logP: reversed-phase HPLC column (C 18)
Protocol: 1) Description of Method for Determination of the Log P Values (Formic Acid Method)
Eluents for determination in the acidic range (pH 3.4):
Eluent A: acetonitrile+1 ml of formic acid/liter. Eluent B: water+0.9 ml of formic acid/liter.
The lambda max values were determined in the maxima of the chromatographic signals using the UV spectra from 200 nm to 400 nm.

log P | chromatographic logP | SMILES
2.17 | – | CS(=O)(=O)c1ccccc1C(=O)Nc1ccn(-c2ccccc2Cl)n1 [Compound I-1-341]
– | 3.49 | Cc1cc(C(F)(F)F)c(C#N)c(-n2ccc(NC(=O)c3ccccc3C(F)(F)F)n2)n1 [Compound I-1-571, N-{1-[3-Cyano-6-methyl-4-(trifluoromethyl)pyridin-2-yl]-1H-pyrazol-3-yl}-2-(trifluoromethyl)benzamide]
2.72 | – | O=C(Nc1ccn(-c2c(F)cccc2F)n1)c1c(F)cccc1C(F)(F)F [Compound I-1-276]
2.15 | – | Cc1snnc1C(=O)Nc1ccn(-c2ncc(F)cc2F)n1 [Compound I-1-546]
3.01 | – | O=C(Nc1nn(-c2ccccc2Cl)cc1I)c1ccccc1Cl [Compound I-1-30]
2.34 | – | O=C(Nc1ccn(-c2ccccc2[N+](=O)[O-])n1)c1c(F)cccc1F [Compound I-1-417]
1.88 | – | Nc1cc(NC(=O)c2ccccc2Cl)nn1-c1ccccc1Cl [Compound I-1-361]
3.42 | – | O=C(Nc1ccn(-c2cc(F)c(F)cc2F)n1)c1cccnc1C(F)(F)F [Compound I-1-192]
3.62 | – | O=C(c1ccccc1C(F)(F)F)N(CC1CC1)c1ccn(-c2ncc(F)cc2F)n1 [Compound I-1-471]
2.03 | – | N#Cc1cncnc1-n1ccc(NC(=O)c2c(F)cccc2F)n1 [Compound I-1-595]
2.29 | – | O=C(Nc1cnn(-c2ccccc2Br)n1)c1cccnc1Cl [Compound I-2-9]
2.33 | – | Cc1noc(C(F)F)c1C(=O)Nc1ccn(-c2ncc(F)cc2F)n1 [Compound I-1-157]
3.07 | – | O=C(Nc1ccn(-c2c(F)cccc2F)c1)c1ccsc1I [Compound I-3-7]
2.00 | – | O=C(Nc1cnn(-c2ncc(F)cc2F)n1)c1cccnc1C(F)(F)F [Compound I-2-67]
2.79 | – | O=C(Nc1ccn(-c2ccccc2Cl)n1)c1ncccc1Cl [Compound I-1-40]
2.53 | – | Cn1nc(C(F)(F)F)c(C(=O)Nc2ccn(-c3c(F)cccc3F)n2)c1F [Compound I-1-112]
1.96 | – | CS(=O)(=O)c1ccccc1-n1ccc(NC(=O)c2ccccc2Cl)n1 [Compound I-1-126]
2.92 | – | Cc1ccc(C#N)c(-n2ccc(NC(=O)c3ccccc3C(F)(F)F)n2)n1 [Compound I-1-572]
3.05 | – | O=C(Nc1ccn(-c2ccccc2Cl)n1)c1c(F)cccc1C(F)(F)F [Compound I-1-384]
1.68 | – | O=C(Nc1ccn(-c2ncccc2Cl)n1)c1cccnc1Br [Compound I-1-565]
2.59 | – | O=C(Nc1ccn(-c2cc(F)cnc2F)n1)c1ccccc1Cl [Compound I-1-225]
1.37 | – | Cc1oncc1C(=O)Nc1ccn(-c2ncc(F)cc2F)n1 [Compound I-1-547]
3.94 | – | O=C(Nc1ccn(-c2cc(F)c(F)cc2F)n1)c1ccccc1Cl [Compound I-1-195]
2.99 | – | N#Cc1cc(F)c(-n2nc(NC(=O)c3c(F)cccc3F)c3c(F)cccc32)cc1F [Compound I-5-11]
2.77 | – | O=C(Nc1nn(-c2ccccc2Br)nc1Cl)c1cccnc1C(F)(F)F [Compound I-2-28]
1.91 | – | Cc1nnsc1C(=O)Nc1ccn(-c2ncc(F)cc2F)n1 [Compound I-1-160]
3.02 | – | O=C(Nc1ccn(-c2cccc(F)c2F)n1)c1ccccc1C(F)(F)F [Compound I-1-64]

log P | chromatographic logP | SMILES
4.03 | – | Cc1nn(-c2ncccc2Cl)nc1N(C(=O)c1ccccc1I)C(=O)c1ccccc1I [Compound I-2-61]
2.46 | – | Cn1ncc(I)c1C(=O)Nc1ccn(-c2c(F)cccc2F)n1 [Compound I-1-324]
2.98 | – | O=C(Nc1ccn(-c2ncc(Cl)cc2F)n1)c1c(F)cccc1C(F)(F)F [Compound I-1-591]
2.59 | – | Cn1nc(C(F)F)c(C(=O)Nc2ccn(-c3ccccc3Cl)n2)c1F [Compound I-1-49]
2.36 | – | Cc1ccccc1C(=O)Nc1ccn(-c2ncc(F)cc2F)n1 [Compound I-1-499]
2.70 | – | O=C(Nc1ccn(-c2ncc(F)cc2F)n1)c1c(Cl)cccc1C(F)(F)F [Compound I-1-638]
2.80 | – | O=C(Nc1ccn(-c2c(F)cccc2F)n1)c1ccc(F)cc1C(F)(F)F [Compound I-1-322]
2.69 | – | CCc1ccccc1C(=O)Nc1ccn(-c2ncc(F)cc2F)n1 [Compound I-1-488]
2.00 | – | O=C(Nc1ccn(-c2ncc(F)cc2F)n1)c1cncnc1C(F)(F)F [Compound I-1-154]
2.23 | – | Cn1ncc(Br)c1C(=O)Nc1ccn(-c2ncc(F)cc2F)n1 [Compound I-1-521]
2.86 | – | O=C(Nc1ccn(-c2ccccc2Br)n1)c1ccccc1Br [Compound I-1-52]
2.46 | – | O=C(Nc1ccn(-c2ncccc2Cl)n1)c1ccsc1I [Compound I-1-566]
2.61 | – | O=C(Nc1ccn(-c2ncccc2C(F)(F)F)n1)c1ccccc1Br [Compound I-1-424]
– | 0.4 | Nc1cnn(-c2ncccc2F)n1 [2-(3-Fluoropyridin-2-yl)-2H-1,2,3-triazole-4-amine]
– | 2.23 | Nc1nn(-c2ccccc2Cl)cc1Br [4-Bromo-1-(2-chlorophenyl)-1H-pyrazole-3-amine]
2.51 | – | O=C(Nc1ccn(-c2ncc(F)cc2F)n1)c1c(Cl)cccc1Cl [Compound I-1-479]
2.36 | – | Cn1nc(C(F)(F)F)c(C(=O)Nc2ccn(-c3ncc(F)cc3F)n2)c1F [Compound I-1-158]
2.28 | – | O=C(Nc1ccn(-c2cc(F)ccc2F)n1)c1cccnc1Cl [Compound I-1-218]
2.12 | – | O=C(Nc1ccn(-c2ncccc2Cl)n1)c1c(F)cccc1F [Compound I-1-564]
2.72 | – | O=C(Nc1ccn(-c2ncc(F)cc2F)n1)c1cccc(Cl)c1Cl [Compound I-1-476]
2.54 | – | O=C(Nc1ccn(-c2ccccc2Br)n1)c1cccnc1C(F)(F)F [Compound I-1-56]
3.03 | – | O=C(Nc1cnn(-c2ccccc2Br)n1)c1ccccc1C(F)(F)F [Compound I-2-6]
3.00 | – | O=C(Nc1ccn(-c2c(F)cccc2F)n1)c1ccccc1CC(F)(F)F [Compound I-1-610]
1.88 | – | Cc1nc(C)c(C(=O)Nc2ccn(-c3ncc(F)cc3F)n2)s1 [Compound I-1-478]
2.25 | – | O=C(Nc1ccn(-c2c(F)cccc2F)n1)c1cncnc1C(F)(F)F [Compound I-1-295]
1.60 | – | Cc1nn(C)c(C)c1C(=O)Nc1ccn(-c2ncc(F)cc2F)n1 [Compound I-1-445]
2.93 | – | O=C(Nc1ccn(-c2ncc(Cl)cc2Cl)n1)c1cc(Cl)ccc1C(F)(F)F [Compound I-1-437]

log P | chromatographic logP | SMILES
3.51 | – | O=C(Nc1ccn(-c2ccc(Cl)cc2Cl)n1)c1ccccc1C(F)(F)F [Compound I-1-197]
3.53 | – | O=C(Nc1ccn(-c2c(F)cccc2F)n1)c1ccccc1NC(=O)C(F)(F)F [Compound I-1-612]
3.09 | – | O=C(Nc1nn(-c2ccccc2Br)nc1Cl)c1ccccc1Cl [Compound I-2-29]
2.22 | – | O=C(Nc1cnn(-c2ncc(F)cc2F)n1)c1ccccc1Cl [Compound I-2-70]
1.69 | – | Cn1cc([N+](=O)[O-])c(C(=O)Nc2ccn(-c3ncc(F)cc3F)n2)n1 [Compound I-1-453]
1.58 | – | Cn1cnc(C(=O)Nc2ccn(-c3ncc(F)cc3F)n2)c1[N+](=O)[O-] [Compound I-1-454]
2.16 | – | CC1=C(C(=O)Nc2ccn(-c3ncc(F)cc3F)n2)OCCO1 [Compound I-1-639]
2.22 | – | O=C(Nc1cnn(-c2ncccc2Cl)n1)c1ccccc1Cl [Compound I-2-12]
2.24 | – | O=C(Nc1ccn(-c2nccnc2F)n1)c1ccccc1C(F)(F)F [Compound I-1-173]
2.03 | – | Cc1nn(C)c(C(=O)Nc2ccn(-c3ncc(F)cc3F)n2)c1[N+](=O)[O-] [Compound I-1-447]
2.31 | – | O=C(Nc1ccn(-c2ncc(F)cc2F)n1)c1ccccc1F [Compound I-1-493]
1.53 | – | O=C(Nc1ccn(-c2ncccc2F)n1)c1cccnc1Cl [Compound I-1-579]
2.27 | – | Cn1ncc(F)c1C(=O)Nc1ccn(-c2c(F)cccc2F)n1 [Compound I-1-321]
2.76 | – | CCn1ncc(I)c1C(=O)Nc1ccn(-c2c(F)cccc2F)n1 [Compound I-1-235]
2.98 | – | CCc1nn(C)c(C(=O)Nc2ccn(-c3ncc(F)cc3F)n2)c1Cl [Compound I-1-534]
2.84 | – | Cc1nn(C(F)F)c(C(=O)Nc2ccn(-c3ncc(F)cc3F)n2)c1Cl [Compound I-1-525]
2.18 | – | O=C(Nc1ccn(-c2nccnc2F)n1)c1ccccc1I [Compound I-1-176]
3.37 | – | Cn1nc(C(F)(F)C(F)(F)F)c(C#N)c1C(=O)Nc1ccn(-c2c(F)cccc2F)n1 [Compound I-1-317]
3.15 | – | Cc1cc(C)c(C#N)c(-n2ccc(NC(=O)c3ccccc3C(F)(F)F)n2)n1 [Compound I-1-567]
2.87 | – | CCOc1cccc(F)c1-n1ccc(NC(=O)c2ccccc2Br)n1 [Compound I-1-399]
2.93 | – | O=C(c1cccnc1C(F)(F)F)N(C(=O)c1cccnc1C(F)(F)F)c1ccn(-c2ncccc2F)n1 [Compound I-1-134]
2.36 | – | O=C(Nc1ccn(-c2ncc(F)cc2F)n1)c1ccccc1Br [Compound I-1-144]
2.70 | – | O=C(Nc1ccn(-c2ccccc2Br)n1)c1c(F)cccc1F [Compound I-1-334]
3.29 | – | O=C(Nc1ccn(-c2ccccc2Cl)n1)c1sccc1Cl [Compound I-1-377]
3.64 | – | O=C(c1cccnc1Cl)N(C(=O)c1cccnc1Cl)c1nn(-c2ccccc2Br)nc1Cl [Compound I-2-23]
2.16 | – | O=C(Nc1ccn(-c2c(F)cccc2F)n1)c1cnccc1C(F)(F)F [Compound I-1-94]
